These results are taken from patent US20250304609A1, “POLYMORPHIC FORM OF CHALCONE GLYCOSIDE COMPOUND, AND PREPARATION METHOD AND APPLICATION THEREOF” (ZHEJIANG YONGNING PHARMACEUTICAL CO., LTD., priority 2022, published 2025).

Data set [1] can be described thus: Stability tests (accelerated and long-term) of salt and crystal forms. In kind it is physicochemical. As to conditions: for Relevant substance, Single impurity / Relevant substance, Total impurities / Content determination: HPLC; for Content determination: content of C27H32O16; for Calcium element: ICP-MS; for pH: solution 5 mg per 1 ml in water. The method, then: The crystal form A for the stability data in the following table is prepared by the method of Example 1. The intermediate was adopted, water was used as a system, calcium carbonate was added for reaction, the solution was filtered and then allowed to stand for crystallization, and subjected to suction filtration, and the filter cake was washed with water and dried by suction, and dried under reduced pressure at 30° C. for 4-6 hours to obtain the crystal form A.
For stability tests and inspection methods, please see the attached stability solutions and quality standards.
[Character] Ocular estimate method: this sample was a yellow powder.
[Examination] PH value: this sample was taken and added with water to make a solution containing 5 mg per 1 ml. According to the pH value determination method (Chinese Pharmacopoeia 2020 Edition Fourth General Rule 0631), the pH value should be 5.0-7.0.
Relevant substances. Determination of relevant substances was performed according to high-performance liquid chromatography (Chinese Pharmacopoeia 2020 Edition Fourth General Rule 0512).
Test sample solution. An appropriate amount of this sample was taken, accurately weighed, dissolved by addition of a diluent, and diluted quantitatively to prepare a solution containing 1.0 mg per 1 ml. The solution was shaken well, filtered through a microporous filter membrane (0.45 μm), and the subsequent filtrate was taken.
Chromatographic conditions. Octadecylsilane bonded silica gel was used as a filler: […] potassium dihydrogen phosphate solution (1.36 g of potassium dihydrogen phosphate was taken into a 1000 mL measuring flask, dissolved by addition of water, and diluted to the scale) was used as a mobile phase A, methanol was used as a mobile phase B, and gradient elution was performed according to the following table; the detection wavelength was 375 nm; and the injection volume was 5 μl.
Limit If there were impurity peaks in the chromatogram of the test sample solution, the area of a single impurity peak shall not be greater than 0.005 times (0.5%) the total peak area, and the sum of the areas of each impurity peak shall not be greater than 0.015 times (1.5%) the total peak area. Chromatographic peaks less than 0.02% of the peak area of the main component can be ignored.
Water content This sample was taken, and according to the method for water content determination (Chinese Pharmacopoeia 2020 Edition Fourth General Rule 0832 First Method), the water content shall not exceed 15.0%.
Calcium element Determination of calcium element was performed according to inductively coupled plasma mass spectrometry (Chinese Pharmacopoeia 2020 Edition Fourth General Rule 0412).
[Content determination] Content determination was performed according to high-performance liquid chromatography (Chinese Pharmacopoeia 2020 Edition Fourth General Rule 0512).
Chromatographic conditions. Octadecylsilane bonded silica gel was used as a filler, methanol-acetonitrile-water-phosphoric acid (26:2:72:0.04) was used as a mobile phase, and detection wavelength was 403 nm; and the injection volume was 10 μl.
Determination method. The test sample solution and comparative sample solution were accurately measured, and injected into the liquid chromatograph separately, and the chromatogram was recorded. The content of C27H32O16 in the test sample was calculated by the peak area according to the external standard method.

For the next data set, the system named is H9c2 cardiomyocytes. Kind of data set: Flow cytometry (Annexin V-FITC) for cell apoptosis detection (OGD/R). In kind it is cell-based. Conditions: OGD/R + 80 μg/ml, 24 h pretreatment; control 7.9%, model 20.3%. The method, then: Establishment of cellular oxygen-glucose deprivation/reperfusion (OGD/R) models. […] ischemia was simulated by incubation in a three-gas incubator (95% N2, 5% CO2) using sugar-free culture medium for 8-h culture, followed by transfer to a normal CO2 incubator for 12-h culture to simulate reperfusion.
Hoechst 33342 staining method for cell apoptosis detection. H9c2 cardiomyocytes were inoculated into a 6-well plate at a density of 2×10^5 cells/well. When the cells were completely adhered to the wall and grew to an appropriate degree of confluence, the cells were divided into a control group, a YN17 80 μg/ml group, a model group, and an OGD/R+80 μg/ml group. In the blank group, 2 mL of a fresh culture medium was added to each well and cultured in a CO2 incubator. The same amount of sugar-free DMEM was added to each well in the model group. […] After the treatment of each group, staining was performed according to the instructions of the Hoechst 33342 staining solution, and the nucleus morphology and fluorescence intensity of each group were observed under a fluorescence microscope.
Flow cytometry for cell apoptosis detection. […] After the treatment of each group, staining was performed according to the instructions of the Annexin V-FITC cell apoptosis detection kit, and cell apoptosis was detected by a flow cytometer.

Setting [2] is: Accelerated 6 months, 40° C. ± 2° C./75% ± 5% RH.
Setting [3] is: Long-term 6 months, 25° C. ± 2° C./60% ± 5% RH.

As to `O=C(/C=C/c1ccc(O)cc1)C1=C(O)C([C@@H]2O[C@H](CO)[C@@H](O)[C@H](O)[C@H]2O)=C([O-])[C@@](O)([C@@H]2O[C@H](CO)[C@@H](O)[C@H](O)[C@H]2O)C1=O.[Ca+2].[OH-]` [YN17, (S)-3,6-dihydroxy-4-((E)-3-(4-hydroxyphenyl)acryloyl)-5-oxo-6-((2R,3R,4S,5S,6R)-3,4,5-trihydroxy-6-(hydroxymethyl)tetrahydro-2H-pyran-2-yl)-2-((2S,3R,4R,5S,6R)-3,4,5-trihydroxy-6-(hydroxymethyl)tetrahydro-2H-pyran-2-yl)cyclohexyl-1,3-diene-1-hydroxycalcium], in data set [1] (0 months), the Character entry is recorded as “Yellow”; the Water content is recorded as 9.9%; the “Relevant substance, Single impurity” value turned out to be 0.25%; the “Relevant substance, Total impurities” value turned out to be 0.25%. Also, in data set [1] (0 months), the Content determination is given as 97.0%, the Calcium element turned out to be 3.19% and the pH turned out to be 5.9. Besides, in data set [1] (setting [2]), the Character entry is reported as “Yellow”; the Water content was found to be 10.1%; the “Relevant substance, Single impurity” value was determined as 0.25%; the “Relevant substance, Total impurities” value was found to be 0.54%. For the same molecule, in data set [1] (setting [2]), the Content determination is given as 96.5%, the Calcium element is recorded as 3.26% and the pH is recorded as 5.8. For the same molecule, in data set [1] (setting [3]), the Character entry was “Yellow”; the Water content came to 10.7%; the “Relevant substance, Single impurity” value is 0.25%; the “Relevant substance, Total impurities” value is 0.32%. Besides, in data set [1] (setting [3]), the Content determination stood at 96.7%, the Calcium element came to 3.21% and the pH is on record as 5.9. In addition, the “Stability (comparison of salt forms, relevant substances and contents)” value in data set [1] (summary of Table 1 and Table 2) was “very stable”. In the data set with H9c2 cardiomyocytes, the apoptosis rate worked out at 13.3%.
